pIC50: −log10 of the molar value.
Assays:
[1] = target: T1, GST-ALK5 (Homo sapiens, UniProt P36897); test: In-vitro (enzyme) kinase assay, 384-well flashplate (Example 36); assay type: biochemical; settings: GST-ALK5, GST-SMAD2 substrate, 3 mM ATP, 30° C., 45 min; read-out: TβR activity (Example 36)
T1 sequence (P36897 34-503): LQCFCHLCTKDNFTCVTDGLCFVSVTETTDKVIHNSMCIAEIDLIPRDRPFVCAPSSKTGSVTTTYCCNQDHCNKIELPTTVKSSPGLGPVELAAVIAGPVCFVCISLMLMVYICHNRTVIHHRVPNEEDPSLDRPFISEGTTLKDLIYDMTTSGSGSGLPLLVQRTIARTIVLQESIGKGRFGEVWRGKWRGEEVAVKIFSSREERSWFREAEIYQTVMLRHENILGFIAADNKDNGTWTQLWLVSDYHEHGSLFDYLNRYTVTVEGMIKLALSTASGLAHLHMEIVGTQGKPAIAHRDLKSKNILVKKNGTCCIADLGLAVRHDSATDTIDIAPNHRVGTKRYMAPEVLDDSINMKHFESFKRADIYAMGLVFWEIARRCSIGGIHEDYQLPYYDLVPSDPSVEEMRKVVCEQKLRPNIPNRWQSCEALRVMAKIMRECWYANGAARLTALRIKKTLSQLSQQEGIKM
Outline: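 Radiometric flashplate assay: 31.2 nM GST-ALK5 phosphorylating 439 nM GST-SMAD2 with 3 mM ATP plus ³³P-ATP, in HEPES/MgCl2/MnCl2/DTT/BSA buffer pH 7.4, 45 min at 30 °C, 5-10 compound concentrations. EDTA stop, filtration and washing, then radioactivity counted; IC50 derived from the curve.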

[2] = system: TGF-beta-induced phosphorylation of Smad2 and Smad3 in Mv1-Lu cells; test: Inhibition of Smad2/3 phosphorylation in Mv1Lu cells (Example 35A); assay type: cell-based, mink Mustela vison; settings: Neogale vison, Mv1-Lu cells, TGF-beta 1 5 ng/ml, phospho-Smad2/3 ELISA, read-out: TβR activity (Example 35A)
Outline: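 Serum-starved (16-20 h) Mv1-Lu mink lung epithelial cells were pre-incubated 1.5 h with compound dilutions (0.2% DMSO), then stimulated 1 h with 5 ng/ml TGF-beta 1. Phospho-Smad2 (Ser465/467)/Smad3 (Ser423/425) in lysates was measured by ELISA. IC50 came from dose-response fits between stimulated and unstimulated controls.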

Row | SMILES | pIC50 [1] | pIC50 [2]
1 | CN1CCN(c2ccc(-c3cncc(-c4cc(-c5ccccc5F)nc5ncccc45)n3)cn2)CC1 [compound 82, 2-(2-Fluoro-phenyl)-4-{6-[6-(4-methyl-piperazin-1-yl)-pyridin-3-yl]-pyrazin-2-yl}-[1,8]naphthyridine] | > 7.00 | 6.00 to 7.00
2 | OCCn1cc(-c2cncc(-c3cc(-c4ccccc4F)nc4ncccc34)n2)cn1 [compound 83, 2-(4-{6-[2-(2-Fluoro-phenyl)-[1,8]naphthyridin-4-yl]-pyrazin-2-yl}-pyrazol-1-yl)-ethanol] | > 7.00 | 5.00 to 6.00
3 | OC/C=C/Cn1cc(-c2cncc(-c3cc(-c4ccccc4F)nc4ncccc34)c2)cn1 [compound 84] | > 7.00 | 6.00 to 7.00
4 | CN1CCC(n2cc(-c3cncc(-c4cc(-c5ccccc5F)nc5ncccc45)n3)cn2)CC1 [compound 85, 2-(2-Fluoro-phenyl)-4-{6-[1-(1-methyl-piperidin-4-yl)-1H-pyrazol-4-yl]-pyrazin-2-yl}-[1,8]naphthyridine] | > 7.00 | 6.00 to 7.00
5 | CN1CCN(CCCn2cc(-c3cncc(-c4cc(-c5ccccc5F)nc5ncccc45)c3)cn2)CC1 [compound 86, 2-(2-Fluoro-phenyl)-4-(5-{1-[3-(4-methyl-piperazin-1-yl)-propyl]-1H-pyrazol-4-yl}-pyridin-3-yl)-[1,8]naphthyridine] | > 7.00 | 6.00 to 7.00
6 | Fc1ccccc1-c1cc(-c2cncc(-c3cnn(CCCN4CCOCC4)c3)c2)c2cccnc2n1 [compound 87, 2-(2-Fluoro-phenyl)-4-{5-[1-(3-morpholin-4-yl-propyl)-1H-pyrazol-4-yl]-pyridin-3-yl}-[1,8]naphthyridine] | > 7.00 | 6.00 to 7.00
7 | OCC(O)Cn1cc(-c2cncc(-c3cc(-c4cc(F)ccc4F)nc4ncccc34)c2)cn1 (centres unmarked) [compound 88, 3-(4-{5-[2-(2,5-Difluoro-phenyl)-[1,8]naphthyridin-4-yl]-pyridin-3-yl}-pyrazol-1-yl)-propane-1,2-diol] | > 7.00 | 5.00 to 6.00
8 | OCCCn1cc(-c2cncc(-c3cc(-c4cc(F)ccc4F)nc4ncccc34)c2)cn1 [compound 89, 3-(4-{5-[2-(2,5-Difluoro-phenyl)-[1,8]naphthyridin-4-yl]-pyridin-3-yl}-pyrazol-1-yl)-propan-1-ol] | > 7.00 | 6.00 to 7.00
9 | OCCn1cc(-c2cncc(-c3cc(-c4cc(Cl)ccc4F)nc4ncccc34)c2)cn1 [compound 91, 2-(4-{5-[2-(5-Chloro-2-fluoro-phenyl)-[1,8]naphthyridin-4-yl]-pyridin-3-yl}-pyrazol-1-yl)-ethanol] | > 7.00 | > 7.00
10 | CN1CCN(c2ccc(-c3cncc(-c4cc(-c5cc(Cl)ccc5F)nc5ncccc45)c3)cc2)CC1 [compound 92, 2-(5-Chloro-2-fluoro-phenyl)-4-{5-[4-(4-methyl-piperazin-1-yl)-phenyl]-pyridin-3-yl}-[1,8]naphthyridine] | > 7.00 | > 7.00
11 | CN1CCN(c2ccc(-c3cncc(-c4cc(-c5cc(Cl)ccc5F)nc5ncccc45)c3)cn2)CC1 [compound 93, 2-(5-Chloro-2-fluoro-phenyl)-4-[6′-(4-methyl-piperazin-1-yl)-[3,3′]bipyridinyl-5-yl]-[1,8]naphthyridine] | > 7.00 | > 7.00
12 | Fc1ccc(Cl)cc1-c1cc(-c2cncc(-c3ccc(N4CCNCC4)cc3)c2)c2cccnc2n1 [compound 94, 2-(5-Chloro-2-fluoro-phenyl)-4-[5-(4-piperazin-1-yl-phenyl)-pyridin-3-yl]-[1,8]naphthyridine] | > 7.00 | > 7.00
13 | Fc1ccc(Cl)cc1-c1cc(-c2cncc(-c3ccc(N4CCNCC4)nc3)c2)c2cccnc2n1 [compound 95, 2-(5-Chloro-2-fluoro-phenyl)-4-(6′-piperazin-1-yl-[3,3′]bipyridinyl-5-yl)-[1,8]naphthyridine] | > 7.00 | 6.00 to 7.00
